# According to US10730883B2 (AbbVie Inc., priority 2015, dated 2020):
# Like-named read-outs stand apart in the source and are kept apart here.
# Experiments:
# [1] = Chemical stability of solid state forms in closed vials at controlled temperature and relative humidity; assay type: physicochemical
# Protocol: (§1) The Amorphous Freebase, however, is hygroscopic and can comprise as much as 12% by weight water at 25° C./90% relative humidity. Environmental controls potentially are required to ensure appropriate control of potency and water content during storage, dispensing, and handling of the Amorphous Freebase.
# (§2) The Tartrate Hydrate, however, potentially will convert to an amorphous tartrate below 10% relative humidity, when heated, or when compressed or under shear.
# [2] = Stability of solid state forms to light and peroxide; assay type: physicochemical
# Protocol: as §1, §2
# [3] = Hygroscopicity / moisture sorption isotherm of solid state forms; assay type: physicochemical
# From the text: FIG. 6A is a moisture sorption isotherm corresponding to the Amorphous Freebase (via dehydration).
# FIG. 6C is a moisture sorption isotherm corresponding to the Tartrate Hydrate.
# FIG. 6D is a moisture sorption isotherm corresponding to the Freebase Anhydrate Form D.
# In one embodiment, the Tartrate Hydrate has a moisture sorption isotherm profile showing a weight gain of about 1% to about 2% when relative humidity is increased from about 10% relative humidity to about 90% relative humidity at a temperature of 25° C.
# [4] = Solubility of solid state forms; assay type: physicochemical; details: Amorphous Freebase: relative to the corresponding crystalline forms
# [5] = Bioavailability of solid state forms; assay type: in vivo; details: relative to the corresponding crystalline forms
# [6] = Equilibrium solubility; assay type: physicochemical
# Protocol: After equilibration, the mixtures were inspected to assure that the amount of excess solid was sufficient to permit re-characterization. […] The pH of aqueous suspensions was determined after equilibration. The solid phase was separated from the liquid phase by centrifugation at 3300 rpm at equilibration temperatures (i.e., 25° C. or 37° C.). The supernatant was then filtered (13 mm Acrodisc® syringe filter with 0.45μ GHP membrane, Pall® Life Sciences, Ann Arbor, Mich.) to discard the initial 2 mL (to saturate filter) and capture the last 1 mL for analysis. The filtrate was diluted as needed for quantification of the material studied by HPLC method (as detailed elsewhere herein). The physical form of the recovered solid was characterized by powder X-ray diffraction to examine whether or not phase change had occurred
# [7] = Solid state accelerated stability study; assay type: physicochemical; details: for Growth of degradation products: open and closed glass vials
# Protocol: Samples (approximately 1 mg to 2 mg) of the solid state form were weighed into glass vials and tested as described below.
# [8] = Moisture sorption isotherm; assay type: physicochemical; details: 90% relative humidity at 25° C.
# Protocol: Moisture vapor isotherm data were collected with a DVS Advantage (Surface Measurement Systems Ltd, Alperton, United Kingdom). The sample powder (5 mg to 20 mg) was loaded on a tared pan of the DVS Advantage. The moisture sorption isotherm data were collected from 30-0-90-0-30% relative humidity in 10% relative humidity intervals. For each step, the dm/dt criteria was 0.001% over 5 minutes, a minimum dm/dt time of 30 minutes, and a maximum dm/dt of 120 minutes. Data was collected isothermally at 25° C. with a nitrogen flow rate of 200 cm^3/minute. The post DVS sample was kept at approximately 30% relative humidity before PXRD analysis.
# [9] = Pharmacokinetic interaction of Compound 1 and methotrexate (dose-normalized AUC); assay type: in vivo, human; details: FIG. 35A
# [10] = test system: healthy subjects; assay: Study 2-Part 1: safety and tolerability, multiple doses, healthy subjects; assay type: in vivo, human
# Protocol: (§3) Study drug was administered approximately 30 minutes after a standard breakfast (in the morning) or a snack (in the evening). […] Subjects were confined to the study site and supervised for approximately 18 days.
# Safety was evaluated based on assessments of adverse events, vital signs, physical examination, laboratory metrics, and 12-lead electrocardiogram (ECG). All subjects who received at least one dose of study drug were included in the safety analyses. Subjects who were administered placebo were pooled into a single group within each study or study part. Laboratory test values and vital signs measurements that were above or below the reference range were identified. […] In subjects with RA, the severity of adverse events were rated by the investigator as mild (transient and easily tolerated by the subject), moderate (causes subject discomfort and interrupts the subject's usual activities), or severe (causes considerable interference with the subject's usual activities and may be incapacitating or life-threatening).
# [11] = test system: subjects with mild to moderate RA; assay: Study 2-Part 2: safety and tolerability, subjects with RA; assay type: in vivo, human
# Protocol: (§4) Subjects received study drug for 26 consecutive days (Study Days 3 through 28) and a single morning dose of study drug on Study Day 29. […] Subjects were confined to the study site for a total of 10 days—from Day 1 to Day 4 and from Day 27 to Day 31.
# Safety was evaluated based on assessments of adverse events, vital signs, physical examination, laboratory metrics, and 12-lead electrocardiogram (ECG). All subjects who received at least one dose of study drug were included in the safety analyses. Subjects who were administered placebo were pooled into a single group within each study or study part. Laboratory test values and vital signs measurements that were above or below the reference range were identified. Subjects were followed-up for a total of 7 days in Study 1, 35 days in Study 2-Part 1, and 57 days in Study 2-Part 2. […] In subjects with RA, the severity of adverse events were rated by the investigator as mild (transient and easily tolerated by the subject), moderate (causes subject discomfort and interrupts the subject's usual activities), or severe (causes considerable interference with the subject's usual activities and may be incapacitating or life-threatening).
# [12] = clinical; details: human, plasma, oral, 48 mg
# Protocol: (§5) Study 1 was designed as a single-site, randomized, double-blind, placebo-controlled study. […] Study drug was administered following at least 10 hours of fasting. […] Subjects were confined to the study site and supervised for approximately 8 consecutive days.
# (§6) Samples quantified below the LLOQ were reported as zero.
# (§7) Renal clearance (CLr) was calculated as Au,0-12/AUC0-12 at steady state.
# (§8) Statistical analyses were performed using SAS software (Version 9.3; SAS institute Inc., Cary, N.C., USA).
# [13] = clinical; details: human, oral; for AUC(0-t) / half-life: plasma; for CL renal: urine and plasma
# Protocol: (§9) Both evaluations followed randomized, double-blind, placebo-controlled designs. Part 1 was conducted at PPD Development (Austin, Tex.) and Part 2 was conducted at two sites: Aspen Clinical Research (Orem, Utah) and Altoona Center for Clinical Research (Duncansville, Pa.). Study protocol and informed consents were approved by RCRC IRB (Austin, Tex.) and Quorum Review IRB (Seattle, Wash.).
# as §3, §6, §7, §8
# [14] = clinical; details: human, oral; for half-life: plasma; for CL renal: urine and plasma, CLr
# Protocol: Both evaluations followed randomized, double-blind, placebo-controlled designs. Part 1 was conducted at PPD Development (Austin, Tex.) and Part 2 was conducted at two sites: Aspen Clinical Research (Orem, Utah) and Altoona Center for Clinical Research (Duncansville, Pa.).
# as §4, §6, §7
# [15] = Study 1: single-dose escalation PK in healthy subjects
# Protocol: as §5, §6, §7, §8
# [16] = Study 2-Part 1: multiple-dose escalation PK in healthy subjects
# Protocol: as §9, §3, §6, §7, §8
# [17] = test system: healthy subjects; assay: Study 1: safety and tolerability, single doses, healthy subjects
# Protocol: as §5
# Safety was evaluated based on assessments of adverse events, vital signs, physical examination, laboratory metrics, and 12-lead electrocardiogram (ECG). All subjects who received at least one dose of study drug were included in the safety analyses. Subjects who were administered placebo were pooled into a single group within each study or study part. Laboratory test values and vital signs measurements that were above or below the reference range were identified. Subjects were followed-up for a total of 7 days in Study 1, 35 days in Study 2-Part 1, and 57 days in Study 2-Part 2.
# [18] = general statement on the solid state form
# [19] = multiple twice-daily doses 3 mg
# [20] = multiple twice-daily doses 6 mg
# [21] = multiple twice-daily doses 12 mg
# [22] = multiple twice-daily doses 24 mg
# [23] = multiple twice-daily doses, Total Compound 1
# [24] = on average across all dose groups
# [25] = single 48 mg dose, healthy subjects
# [26] = 6 mg BID, Day 14, healthy subjects
# [27] = 12 mg BID, Day 14, healthy subjects
# [28] = 24 mg BID, Day 14, healthy subjects
compound,measurement,setting,value
"CC[C@@H]1CN(C(=O)NCC(F)(F)F)C[C@@H]1c1cnc2cnc3[nH]ccc3n12 [Amorphous Freebase, (3S,4R)-3-ethyl-4-(3H-imidazo[1,2-a]pyrrolo[2,3-e]pyrazin-8-yl)-N-(2,2,2-trifluoroethyl)pyrrolidine-1-carboxamide]",degradation observed in closed vials,"[1]; closed vials, 30° C./65% relative humidity and 40° C./75% relative humidity over 12 weeks, 50° C./75% relative humidity over 6 weeks",no degradation
same,chemical stability,[1]; [18],acceptable chemical stability
same,stability to light and peroxide,[2],acceptable stability
same,water content (hygroscopicity),[3]; 25° C./90% relative humidity,≤ 12 % by weight
same,hygroscopicity,[3]; [18],hygroscopic
same,Solubility,[4],greater solubility
same,bioavailability,[5],increased bioavailability
same,Solubility,[6]; FasSIF (pH 6.5 at 37° C.),1140 µg/mL
same,Solubility,[6]; FedSIF (pH 5.0 at 37° C.),2130 µg/mL
same,Solubility,[6]; pH 1 at 25° C.,>3500 µg/mL
same,Solubility,[6]; pH 7.4 at 25° C.,680 µg/mL
same,Growth of degradation products,"[7]; 40° C./75% relative humidity, up to 24 weeks",no growth of degradation products
same,Growth of degradation products,"[7]; 50° C./75% relative humidity, up to six weeks",no growth of degradation products
same,chemical stability,[7]; solid state accelerated stability study,acceptable
same,"Change in attributes evaluated (description, crystal form, assay, impurities and water content)",[7]; storage conditions of the accelerated stability study,No material change
same,Moisture sorption (reversibly sorbs up to),[8],up to 13%
"CC[C@@H]1CN(C(=O)NCC(F)(F)F)C[C@@H]1c1cnc2cnc3[nH]ccc3n12 [Compound 1, (3S,4R)-3-ethyl-4-(3H-imidazo[1,2-a]pyrrolo[2,3-e]pyrazin-8-yl)-N-(2,2,2-trifluoroethyl)pyrrolidine-1-carboxamide]",effect of concomitant methotrexate administration on Compound 1 dose-normalized AUC,[9],lack of effect
same,"Abdominal Discomfort, subjects",[10]; [19],0
same,"Abdominal Pain, subjects",[10]; [19],0
same,"Diarrhoea, subjects",[10]; [19],0
same,"Headache, subjects",[10]; [19],0
same,"Nasopharyngitis, subjects",[10]; [19],1 (12.5%)
same,"Abdominal Discomfort, subjects",[10]; [20],0
same,"Abdominal Pain, subjects",[10]; [20],1 (12.5%)
same,"Diarrhoea, subjects",[10]; [20],1 (12.5%)
same,"Headache, subjects",[10]; [20],2 (25.0%)
same,"Nasopharyngitis, subjects",[10]; [20],1 (12.5%)
same,"Abdominal Discomfort, subjects",[10]; [21],0
same,"Abdominal Pain, subjects",[10]; [21],0
same,"Diarrhoea, subjects",[10]; [21],1 (12.5%)
same,"Headache, subjects",[10]; [21],2 (25.0%)
same,"Nasopharyngitis, subjects",[10]; [21],0
same,"Abdominal Discomfort, subjects",[10]; [22],0
same,"Abdominal Pain, subjects",[10]; [22],1 (12.5%)
same,"Diarrhoea, subjects",[10]; [22],0
same,"Headache, subjects",[10]; [22],1 (12.5%)
same,"Nasopharyngitis, subjects",[10]; [22],0
same,"Abdominal Discomfort, subjects",[10]; [23],0
same,"Abdominal Pain, subjects",[10]; [23],2 (6.3%)
same,"Diarrhoea, subjects",[10]; [23],2 (6.3%)
same,"Headache, subjects",[10]; [23],5 (15.6%)
same,"Nasopharyngitis, subjects",[10]; [23],2 (6.3%)
same,changes in hematologic parameters,[10]; multiple-dose administration in healthy subjects for 14 days,no clinically significant changes
same,subjects with at least one TEAE,[11]; Compound 1 dose groups (total of 11 subjects with RA),Five subjects
same,number of TEAEs reported,"[11]; Compound 1 dose groups, subjects with RA",7
same,Ctrough,"6 mg BID, Day 28, subjects with RA",5.81 ng/mL
same,AUC0-12,"12 mg BID, Day 28, subjects with RA",334 ng·h/mL
same,Ctrough,"12 mg BID, Day 29, subjects with RA",6.44 ng/mL
same,Ctrough,"24 mg BID, Day 28, subjects with RA",15.3 ng/mL
same,Ctrough,"24 mg BID, Day 29, subjects with RA",14.9 ng/mL
same,apparent oral clearance lower in subjects with RA compared to healthy subjects,[24],23%
same,higher exposure in subjects with RA than in healthy subjects,[24],approximately 30%
same,AUC(0-inf),[12],1040 ± 174 ng·h/mL
same,AUC(0-t),[12],1030 ± 174 ng·h/mL
same,AUC(0-t),[13]; 3 mg,78.3 ± 20.3 ng·h/mL
same,half-life,[13]; 3 mg,3.2 ± 0.4 h
same,AUC(0-t),[13]; 6 mg,138 ± 16.7 ng·h/mL
same,half-life,[13]; 6 mg,3.3 ± 0.3 h
same,half-life,[13]; 12 mg,3.2 ± 0.5 h
same,CL renal,[13]; 3 mg,125 mL/min
same,CL renal,[13]; 12 mg,162 mL/min
same,half-life,"[14]; 6 mg, t1/2F (functional half-life), 6 mg BID, Day 29, subjects with RA, harmonic mean",3.5 h
same,half-life,"[14]; 12 mg, t1/2F (functional half-life), 12 mg BID, Day 29, subjects with RA, harmonic mean",3.7 h
same,half-life,"[14]; 24 mg, t1/2F (functional half-life), 24 mg BID, Day 29, subjects with RA, harmonic mean",3.6 h
same,half-life,"[14]; functional half-life, subjects with RA on stable doses of methotrexate",~4 h
same,CL renal,"[14]; 6 mg, 6 mg BID, Day 28, subjects with RA",116 mL/min
same,CL renal,"[14]; 6 mg, 6 mg BID, Day 29, subjects with RA",82.2 mL/min
same,CL renal,"[14]; 12 mg, 12 mg BID, Day 28, subjects with RA",104 mL/min
same,CL renal,"[14]; 12 mg, 12 mg BID, Day 29, subjects with RA",82.7 mL/min
same,CL renal,"[14]; 24 mg, 24 mg BID, Day 28, subjects with RA",105 mL/min
same,CL/F,[15]; [25],47.6 ± 8.97 L/h
same,dose-normalized AUC∞ lower than that following 3 mg dose,[15]; [25],40%
same,Dose proportionality of exposures,[15]; single dose range of 3 to 36 mg and multiple dose range of 3 mg to 24 mg BID,dose proportional
same,Ctrough,"[16]; 3 mg BID, Day 14, healthy subjects",1.46 ± 0.50 ng/mL
same,CL/F,[16]; [26],43.9 ± 5.4 L/h
same,Ctrough,[16]; [26],2.29 ± 0.41 ng/mL
same,CL/F,[16]; [27],45.5 ± 8.04 L/h
same,Ctrough,[16]; [27],4.54 ± 1.55 ng/mL
same,CL/F,[16]; [28],46.1 ± 6.44 L/h
same,Ctrough,[16]; [28],9.50 ± 2.57 ng/mL
same,t1/2F (functional half-life),"[16]; 24 mg BID, Day 14, healthy subjects, harmonic mean ± pseudo-SD",3.3 ± 0.4 h
same,functional half-life,"[16]; estimated from Cmax to Ctrough ratio at steady-state, healthy volunteers",approximately 3 hours
same,pre-dose concentrations on Study Day 13 lower compared with Study Day 5,"[16]; multiple dosing, healthy volunteers",13%
same,"Headache, subjects",[17]; single dose 48 ng,2 (33.3%)
same,"Presyncope, subjects",[17]; single dose 48 ng,0
same,"Headache, subjects",[17]; single dose 1 mg,0
same,"Presyncope, subjects",[17]; single dose 1 mg,0
same,"Headache, subjects",[17]; single dose 3 mg,0
same,"Presyncope, subjects",[17]; single dose 3 mg,0
same,"Headache, subjects",[17]; single dose 6 mg,0
same,"Presyncope, subjects",[17]; single dose 6 mg,1 (16.7%)
same,"Headache, subjects",[17]; single dose 12 mg,0
same,"Presyncope, subjects",[17]; single dose 12 mg,0
same,"Headache, subjects",[17]; single dose 24 mg,0
same,"Presyncope, subjects",[17]; single dose 24 mg,1 (16.7%)
same,"Headache, subjects",[17]; single dose 36 mg,0
same,"Presyncope, subjects",[17]; single dose 36 mg,0
same,Tolerability,"[17]; single doses up to 48 mg and multiple twice daily doses up to 24 mg, immediate-release formulation",well-tolerated
same,dose-limiting toxicities or safety concerns,[17]; single doses up to 48 mg or multiple doses up to 24 mg twice daily,no dose-limiting toxicities or safety concerns
same,"Presyncope, subjects","[17]; single doses, Total Compound 1",2 (4.8%)
same,Severity of TEAEs,"[17]; single doses, healthy subjects",mild
same,maximum tolerated dose,[17]; single or multiple dose studies,not reached
